Test results from ChEMBL document CHEMBL1131189, “Conformationally restricted analogues of 1N,12N-bisethylspermine: synthesis and growth inhibitory effects on human tumor cell lines” (1998).

How the values were obtained:
DU-145 [1] = experiment: The concentration levels of spermine (SP) evaluated for the polyamine and analogue levels in DU145 cells treated with the compound concentration of 5 uM on fifth day of treatment.; type: functional, cell-based; details: Homo sapiens
DU-145 [2] = experiment: The concentration levels of spermidine (SD) evaluated for the polyamine and analogue levels in DU145 cells treated with the compound concentration of 0 uM on fifth day of treatment.; type: functional, cell-based; details: Homo sapiens
HT-29 = experiment: Growth inhibitory activity was measured for human HT-29 tumor cell line.; type: functional; details: Homo sapiens, HT-29; read-out: ID50 (the source's name)
DU-145 [3] = experiment: The concentration levels of analogue evaluated for the polyamine and analogue levels in DU145 cells treated with the compound concentration of 0 uM on fifth day of treatment.; type: functional, cell-based; details: Homo sapiens
DU-145 [4] = experiment: The concentration levels of spermidine (SD) evaluated for the polyamine and analogue levels in DU145 cells treated with the compound concentration of 5 uM on fifth day of treatment.; type: functional, cell-based; details: Homo sapiens
A549 = experiment: Growth inhibitory activity was measured for human A549 tumor cell line.; type: functional; details: Homo sapiens, A549; read-out: ID50 (the source's name)
DU-145 [5] = experiment: The concentration levels of putrescine (PU) evaluated for the polyamine and analogue levels in DU145 cells treated with the compound concentration of 0. uM on third day of treatment.; type: functional, cell-based; details: Homo sapiens
DU-145 [6] = experiment: The concentration levels of analogue evaluated for the polyamine and analogue levels in DU145 cells treated with the compound concentration of 5 uM on fifth day of treatment.; type: functional, cell-based; details: Homo sapiens
DU-145 [7] = experiment: The concentration levels of putrescine (PU) evaluated for the polyamine and analogue levels in DU145 cells treated with the compound concentration of 5 uM on fifth day of treatment.; type: functional, cell-based; details: Homo sapiens
DU-145 [8] = experiment: The concentration levels of spermine (SP), evaluated for the polyamine and analogue levels in DU145 cells treated with the compound concentration of 0 uM on third day of treatment.; type: functional, cell-based; details: Homo sapiens
DU-145 [9] = experiment: The concentration levels of putrescine (PU) evaluated for the polyamine and analogue levels in DU145 cells treated with the compound concentration of 0 uM on fifth day of treatment.; type: functional, cell-based; details: Homo sapiens
DU-145 [10] = experiment: The concentration levels of spermine (SP), evaluated for the polyamine and analogue levels in DU145 cells treated with the compound concentration of 5 uM on fthird day of treatment.; type: functional, cell-based; details: Homo sapiens
DU-145 [11] = experiment: The concentration levels of spermidine (SD), evaluated for the polyamine and analogue levels in DU145 cells treated with the compound concentration of 0 uM on third day of treatment.; type: functional, cell-based; details: Homo sapiens
DU-145 [12] = experiment: The concentration levels of spermine (SP) evaluated for the polyamine and analogue levels in DU145 cells treated with the compound concentration of 0 uM on fifth day of treatment.; type: functional, cell-based; details: Homo sapiens
DU-145 [13] = experiment: The concentration levels of analogue evaluated for the polyamine and analogue levels in DU145 cells treated with the compound concentration of 0 uM on third day of treatment.; type: functional, cell-based; details: Homo sapiens
DU-145 [14] = experiment: The concentration levels of analogue evaluated for the polyamine and analogue levels in DU145 cells treated with the compound concentration of 5 uM on third day of treatment.; type: functional, cell-based; details: Homo sapiens
MCF7 = experiment: Growth inhibitory activity was measured for human MCF-7 tumor cell line.; type: functional; details: read-out: ID50 (the source's name)
DU-145 [15] = experiment: The concentration levels of spermidine (SD), evaluated for the polyamine and analogue levels in DU145 cells treated with the compound concentration of 5 uM on third day of treatment.; type: functional, cell-based; details: Homo sapiens
PC-3 = experiment: Growth inhibitory activity was measured for human PC-3 tumor cell line.; type: functional; details: Homo sapiens, PC-3; read-out: ID50 (the source's name)
DU-145 [16] = experiment: The concentration levels of putrescine (PU) evaluated for the polyamine and analogue levels in DU145 cells treated with the compound concentration of 5 uM on third day of treatment.; type: functional, cell-based; details: Homo sapiens
U-251 = experiment: Growth inhibitory activity was measured for human U251MG NCI tumor cell line.; type: functional; details: read-out: ID50 (the source's name)
DU-145 [17] = experiment: Growth inhibitory activity was measured for human DU145 tumor cell line.; type: functional; details: read-out: ID50 (the source's name)

**Q.** Which Concentration (nM (10e6*cells)-1) (DU-145 [1]) does the source give for `CCNCCCNCC#CCNCCCNCC` here?
**A.** 1.33

**Q.** And the Concentration (nM (10e6*cells)-1) (DU-145 [2])?
**A.** 1.55

**Q.** What about the IC50 (HT-29) of the same molecule?
**A.** > 31.2 µM

**Q.** And the Concentration (nM (10e6*cells)-1) (DU-145 [3])?
**A.** 0.03

**Q.** And the Concentration (nM (10e6*cells)-1) (DU-145 [4])?
**A.** 0.59

**Q.** What about the IC50 (A549) of the same molecule?
**A.** > 31.2 µM

**Q.** What about the Concentration (nM (10e6*cells)-1) (DU-145 [5]) of the same molecule?
**A.** 0.11

**Q.** What about the Concentration (nM (10e6*cells)-1) (DU-145 [6]) of the same molecule?
**A.** 1.71

**Q.** What about the Concentration (nM (10e6*cells)-1) (DU-145 [7]) of the same molecule?
**A.** 0.06

**Q.** And the Concentration (nM (10e6*cells)-1) (DU-145 [8])?
**A.** 3.13

**Q.** And the Concentration (nM (10e6*cells)-1) (DU-145 [9])?
**A.** 0.03

**Q.** What about the Concentration (nM (10e6*cells)-1) (DU-145 [10]) of the same molecule?
**A.** 2.56

**Q.** And the Concentration (nM (10e6*cells)-1) (DU-145 [11])?
**A.** 1.73

**Q.** And the Concentration (nM (10e6*cells)-1) (DU-145 [12])?
**A.** 1.55

**Q.** And the Concentration (nM (10e6*cells)-1) (DU-145 [13])?
**A.** 0.06

**Q.** And the Concentration (nM (10e6*cells)-1) (DU-145 [14])?
**A.** 2.16

**Q.** And the IC50 (MCF7)?
**A.** > 31.2 µM

**Q.** And the Concentration (nM (10e6*cells)-1) (DU-145 [15])?
**A.** 0.9

**Q.** What about the IC50 (PC-3) of the same molecule?
**A.** > 31.2 µM

**Q.** What about the Concentration (nM (10e6*cells)-1) (DU-145 [16]) of the same molecule?
**A.** 0.04

**Q.** And the IC50 (U-251)?
**A.** > 31.2 µM

**Q.** What does the source list for `CCNCCCNCC1CCC1CNCCCNCC` (stereo in doubt; 15)?
**A.** IC50 (HT-29): 1.6 µM; IC50 (DU-145 [17]): 0.01 µM; IC50 (MCF7): > 31.2 µM; IC50 (U-251): 0.12 µM
